Measurements reported in article PMC12216609, “Inhibitors of eIF1A-ribosome interaction unveil uORF-dependent regulation of translation initiation and antitumor and antiviral effects” (The EMBO Journal, 2025).
Where “and” joins values, the source holds several entries; their conditions need not be identical. Equal values may be shown once.

These compounds were tested against T1, eIF1A (Homo sapiens, UniProt P47813) (assay: not given). Conditions: 1Ai conc. 0.25 uM; background-corrected, relative to DMSO or lowest 1Ai concentration; replicate columns.
T1 construct: His-bdSUMO (cleaved yes); made in house; host or cells: E. coli BL-21
T1 sequence (P47813 whole entry): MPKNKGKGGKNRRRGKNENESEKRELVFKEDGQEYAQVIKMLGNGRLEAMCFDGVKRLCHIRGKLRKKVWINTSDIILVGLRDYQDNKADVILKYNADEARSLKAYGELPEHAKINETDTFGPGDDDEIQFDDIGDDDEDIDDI
Format: binding
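For US/DS ratio, average in this document: ratio of upstream to downstream AUG initiation products on GFP Western blot.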

SMILES	fluorescence ratio, eIF1A
O=C(C=Cc1ccc(Cl)s1)Nc1cccc2ncccc12 [1Ai-4860]	1.378 and 0.7463

Same assay, conditions: 1Ai conc. 0.5 uM; background-corrected, relative to DMSO or lowest 1Ai concentration; replicate columns

SMILES	fluorescence ratio, eIF1A
O=C(C=Cc1ccc(Cl)s1)Nc1cccc2ncccc12 [1Ai-4860]	1.41 and 0.8167

Same assay, conditions: 1Ai conc. 1 uM; background-corrected, relative to DMSO or lowest 1Ai concentration; replicate columns

SMILES	fluorescence ratio, eIF1A
O=C(C=Cc1ccc(Cl)s1)Nc1cccc2ncccc12 [1Ai-4860]	1.444 and 0.7972

Same assay, conditions: 1Ai conc. 2 uM; background-corrected, relative to DMSO or lowest 1Ai concentration; replicate columns

SMILES	fluorescence ratio, eIF1A
O=C(C=Cc1ccc(Cl)s1)Nc1cccc2ncccc12 [1Ai-4860]	1.487 and 1.19

Same assay, conditions: 1Ai conc. 4 uM; background-corrected, relative to DMSO or lowest 1Ai concentration; replicate columns

SMILES	fluorescence ratio, eIF1A
O=C(C=Cc1ccc(Cl)s1)Nc1cccc2ncccc12 [1Ai-4860]	1.443 and 1.135

Same assay, conditions: 1Ai conc. 8 uM; background-corrected, relative to DMSO or lowest 1Ai concentration; replicate columns

SMILES	fluorescence ratio, eIF1A
O=C(C=Cc1ccc(Cl)s1)Nc1cccc2ncccc12 [1Ai-4860]	0.951 and 1.007

Same assay, conditions: 1Ai conc. 16 uM; background-corrected, relative to DMSO or lowest 1Ai concentration; replicate columns

SMILES	fluorescence ratio, eIF1A
O=C(C=Cc1ccc(Cl)s1)Nc1cccc2ncccc12 [1Ai-4860]	1.0935 and 0.6993

Same assay, conditions: 1Ai conc. 32 uM; background-corrected, relative to DMSO or lowest 1Ai concentration; replicate columns

SMILES	fluorescence ratio, eIF1A
O=C(C=Cc1ccc(Cl)s1)Nc1cccc2ncccc12 [1Ai-4860]	1.055 and 0.7323

Same assay, conditions: 1Ai conc. 64 uM; background-corrected, relative to DMSO or lowest 1Ai concentration; replicate columns

SMILES	fluorescence ratio, eIF1A
O=C(C=Cc1ccc(Cl)s1)Nc1cccc2ncccc12 [1Ai-4860]	1.155 and 0.874

Same assay, conditions: 1Ai conc. 256 uM; background-corrected, relative to DMSO or lowest 1Ai concentration; replicate columns

SMILES	fluorescence ratio, eIF1A
O=C(C=Cc1ccc(Cl)s1)Nc1cccc2ncccc12 [1Ai-4860]	1.071 and 0.7793

Same assay, conditions: fluorescence binding

SMILES	WT eIF1A IC50
O=C(C=Cc1ccc(Cl)s1)Nc1cccc2ncccc12 [1Ai-4860]	No binding

Same assay, conditions: summary table; fluorescence binding assay

SMILES	IC50 concentration (µM), WT eIF1A
O=C(C=Cc1ccc(Cl)s1)Nc1cccc2ncccc12 [1Ai-4860]	No binding

The compounds below were run against T2, RPS10 (Homo sapiens, UniProt P46783) (assay: not given). Conditions: 1Ai conc. 0.25 uM.
T2 construct: made in house; host or cells: E. coli BL-21
Format: binding

SMILES	RPS10 fluorescence ratio to control
O=C(C=Cc1ccc(Cl)s1)Nc1cccc2ncccc12 [1Ai-4860]	0.9517

Same assay, conditions: 1Ai conc. 0.5 uM

SMILES	RPS10 fluorescence ratio to control
O=C(C=Cc1ccc(Cl)s1)Nc1cccc2ncccc12 [1Ai-4860]	0.9517

Same assay, conditions: 1Ai conc. 1 uM

SMILES	RPS10 fluorescence ratio to control
O=C(C=Cc1ccc(Cl)s1)Nc1cccc2ncccc12 [1Ai-4860]	0.8947

Same assay, conditions: 1Ai conc. 2 uM

SMILES	RPS10 fluorescence ratio to control
O=C(C=Cc1ccc(Cl)s1)Nc1cccc2ncccc12 [1Ai-4860]	0.9408

Same assay, conditions: 1Ai conc. 4 uM

SMILES	RPS10 fluorescence ratio to control
O=C(C=Cc1ccc(Cl)s1)Nc1cccc2ncccc12 [1Ai-4860]	0.8788

Same assay, conditions: 1Ai conc. 8 uM

SMILES	RPS10 fluorescence ratio to control
O=C(C=Cc1ccc(Cl)s1)Nc1cccc2ncccc12 [1Ai-4860]	0.814

Same assay, conditions: 1Ai conc. 16 uM

SMILES	RPS10 fluorescence ratio to control
O=C(C=Cc1ccc(Cl)s1)Nc1cccc2ncccc12 [1Ai-4860]	0.7263

Same assay, conditions: 1Ai conc. 32 uM

SMILES	RPS10 fluorescence ratio to control
O=C(C=Cc1ccc(Cl)s1)Nc1cccc2ncccc12 [1Ai-4860]	0.7395

Same assay, conditions: 1Ai conc. 64 uM

SMILES	RPS10 fluorescence ratio to control
O=C(C=Cc1ccc(Cl)s1)Nc1cccc2ncccc12 [1Ai-4860]	0.7335

Same assay, conditions: 1Ai conc. 256 uM

SMILES	RPS10 fluorescence ratio to control
O=C(C=Cc1ccc(Cl)s1)Nc1cccc2ncccc12 [1Ai-4860]	0.5649

Same assay, conditions: fluorescence binding

SMILES	RPS10 IC50
O=C(C=Cc1ccc(Cl)s1)Nc1cccc2ncccc12 [1Ai-4860]	No binding

Same assay, conditions: summary table; fluorescence binding assay

SMILES	IC50 concentration (µM), RPS10
O=C(C=Cc1ccc(Cl)s1)Nc1cccc2ncccc12 [1Ai-4860]	No binding

Each compound was assayed on CUG/GUG vs AUG start codon luciferase reporters in HEK293T cells (assay: Near-cognate AUG starting codon fidelity reporter assay (GUG, CUG vs AUG)). Conditions: CUG start codon reporter relative to AUG reporter (AUG = 100); compound at 20uM (summary head); single-experiment calculation.
Format: cell-based

SMILES	CUG vs AUG (%)
O=C(C=Cc1ccc(Cl)s1)Nc1cccc2ncccc12 [1Ai-4860]	3.6331%

Same assay, conditions: GUG start codon reporter relative to AUG reporter (AUG = 100); compound at 20uM (summary head); single-experiment calculation

SMILES	GUG vs AUG (%)
O=C(C=Cc1ccc(Cl)s1)Nc1cccc2ncccc12 [1Ai-4860]	0.9953%

Same assay, conditions: NUG experiment

SMILES	average CUG and GUG	average CUG and GUG relative to DMSO
O=C(C=Cc1ccc(Cl)s1)Nc1cccc2ncccc12 [1Ai-4860]	2.314	0.5131

Same assay, conditions: NUG experiment, CUG vs AUG reporter

SMILES	CUG Average
O=C(C=Cc1ccc(Cl)s1)Nc1cccc2ncccc12 [1Ai-4860]	3.6331

Same assay, conditions: NUG experiment, GUG vs AUG reporter

SMILES	GUG Average
O=C(C=Cc1ccc(Cl)s1)Nc1cccc2ncccc12 [1Ai-4860]	0.9953

Same assay, conditions: average CUG and GUG relative to DMSO; 20 µM overnight

SMILES	NUG (Final data, Fig. 1E)
O=C(C=Cc1ccc(Cl)s1)Nc1cccc2ncccc12 [1Ai-4860]	0.513

Same assay, conditions: compound at 20uM; individual repeat

SMILES	GUG vs AUG data (%)
O=C(C=Cc1ccc(Cl)s1)Nc1cccc2ncccc12 [1Ai-4860]	1.48% and 1.00%

Same assay, conditions: compound at 20uM; summary average of repeats; DMSO control average […]

SMILES	GUG vs AUG (%) Average
O=C(C=Cc1ccc(Cl)s1)Nc1cccc2ncccc12 [1Ai-4860]	1.24%

Each compound was assayed on cap-proximal AUG GFP reporter in HEK293T cells (assay: not given). Conditions: GFP WB densitometry; 20 µM overnight; dmso 0.965946.
Format: cell-based

SMILES	US/DS ratio, average
O=C(C=Cc1ccc(Cl)s1)Nc1cccc2ncccc12 [1Ai-4860]	1.03

These compounds were tested on IRF7 5'UTR firefly luciferase reporter in HEK293T cells (assay: not given). Conditions: 1/Result, relative to DMSO; 20 µM.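 Also: luciferase signal corrected by a co-transfected GFP reporter for transfection efficiency, read after overnight compound exposure, with Long and Short reporters differing in 5'UTR length.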

SMILES	Reference vs IRF7 (Final data, Fig. 1E)
O=C(C=Cc1ccc(Cl)s1)Nc1cccc2ncccc12 [1Ai-4860]	1.848

Same assay, conditions: Long reporter, 20 µM, individual replicates, outliers excluded, DMSO = 1

SMILES	LONG (summary - All), normalized to DMSO
O=C(C=Cc1ccc(Cl)s1)Nc1cccc2ncccc12 [1Ai-4860]	0.47 and 0.69 and 0.42 and 0.61

Same assay, conditions: Short reporter, 20 µM, individual replicates, outliers excluded, DMSO = 1

SMILES	SHORT (summary - All), normalized to DMSO
O=C(C=Cc1ccc(Cl)s1)Nc1cccc2ncccc12 [1Ai-4860]	0.84 and 1.62 and 0.77

Same assay, conditions: data section, Long reporter, GFP-corrected, 20 µM, per experiment, includes values excluded as outliers

SMILES	Long: Normalized to average DMSO
O=C(C=Cc1ccc(Cl)s1)Nc1cccc2ncccc12 [1Ai-4860]	0.471 and 0.6925 and 0.4245 and 0.6135

Same assay, conditions: summary - All, 20 µM

SMILES	average ( long vs short ratio)
O=C(C=Cc1ccc(Cl)s1)Nc1cccc2ncccc12 [1Ai-4860]	0.541
